Reference: patent publication US9579319B2 (Redx Pharma PLC, priority 2013, dated 2017)
pIC50: −log10 of the molar value.

What follows are compounds tested on Hedgehog signalling pathway (assay: Gli-reporter NIH3T3 luciferase assay (Hedgehog pathway inhibition)). Details: NIH3T3; Gli-reporter NIH-3T3 cells, recombinant mouse sonic hedgehog, 24 hours, luminescence; read-out: Category (Hedgehog pathway inhibition activity, IC50).
Type: cell-based
Description: In vitro biological evaluation of compounds of the invention was carried out using the procedure detailed below. The procedure provides activity data for the compounds of the invention against the Hedgehog signalling pathway. The activity is represented as IC50 values in Table 12 below.
The Gli-reporter NIH3T3 cell line (BPS Biosciences) was grown according to the suppliers recommendations. Briefly, cells were maintained in growth medium (DMEM supplemented with 10% calf serum, 1% Penicillin/Streptomycin, and 500 µg/mL of Geneticin) and grown at 37° C., 5% CO2. In order to passage cells they were first rinsed with phosphate buffered saline before the addition of 0.05% Trypsin/EDTA. Fresh growth media was added and the cells were transferred to a centrifuge tube, spun and resuspended at an appropriate cell density.
Gli-reporter NIH-3T3 cells were seeded at 20,000 cells/well into 96 well, poly-D-lysine coated white clear bottomed full area TC plates in growth media (without geneticin). Three wells were left with just media as cell free controls. Cells were then incubated for 24 hours at 37° C. in a 5% CO2.
Serial dilutions of the test compounds were prepared in 100% DMSO. 10 μl of compound or DMSO from each well was pipetted into a sterile, 0.5 ml deep well conical bottomed 96 well plate (intermediate plate). 190 μl of warmed assay media (Opti-MEM supplemented with 0.5% calf serum, 1% non-essential amino acids, 1 mM sodium pyruvate, 10 mM HEPES, 1% penicillin/Streptomycin) was then added to each well and mixed five times at 180 μl by electronic pipette to ensure homogeneity of the compound solution. This 1:20 dilution gives a top concentration of 50 μM in 5% DMSO, 95% assay media. 10 μl was pipetted from each well of the intermediate plate into a second deep well sterile plate. 490 μl of warm assay media was then added to each well and mixed five times at 300 μl. This gives a final top concentration of 1 μM in 0.1% DMSO.
After the 24 hour incubation, media was carefully removed by pipette and replaced with 45 μl of compound dilutions in triplicate. This was incubated for one hour at 37° C. in a 5% CO2. After an hour, 5 μl 10 μg/mL recombinant mouse sonic hedgehog (R&D Systems) was added to each well and the plates were incubated for a further 24 hours at 37° C., 5% CO2.
After 24 hours, plates were removed from the incubator and left to acclimatise to room temperature for 20 minutes. 50 μl of OneGLO assay reagent (Promega) was then added to each well and the plates gently shaken for a further 30 minutes. Plates were then read for luminescence on the EnVision plate reader (PerkinElmer).
Compound `CC(C)c1ccccc1CNC1CCN(c2nnc(-c3ccnn3C)c3ccccc23)CC1` [Example 43, N-[(2-isopropylphenyl)methyl]-1-[4-(2-methylpyrazol-3-yl)phthalazin-1-yl]piperidin-4-amine] has a pIC50 of 6.70 to 8.00.
`CN(Cc1ccc(C#N)cc1)C1CCN(c2nnc(-c3ccnn3C)c3ccccc23)CC1` [Example 60, 4-[[methyl-[1-[4-(2-methylpyrazol-3-yl)phthalazin-1-yl]-4-piperidyl]amino]methyl]benzonitrile] was tested, and the pIC50 was 6.70 to 8.00.
`CCOc1ccccc1CNC1CCN(c2nnc(-c3ccnn3C)c3ccccc23)CC1` [Example 52, N-[(2-ethoxyphenyl)methyl]-1-[4-(2-methylpyrazol-3-yl)phthalazin-1-yl]piperidin-4-amine] showed a pIC50 of 6.70 to 8.00.
`CN(Cc1ccccc1)C1CCN(c2nnc(-c3ccnn3C)c3ccccc23)CC1` [Example 59, N-benzyl-N-methyl-1-[4-(2-methylpyrazol-3-yl)phthalazin-1-yl]piperidin-4-amine] was tested, and the pIC50 was 6.70 to 8.00.
For `CN(Cc1ccc(F)cc1C(F)(F)F)C1CCN(c2nnc(-c3ccnn3C)c3ccncc23)CC1` [Example 47, N-[[4-fluoro-2-(trifluoromethyl)phenyl]methyl]-N-methyl-1-[1-(2-methylpyrazol-3-yl)pyrido[3,4-d]pyridazin-4-yl]piperidin-4-amine], the pIC50 was over 8.00.
`CN(Cc1ccc(F)cc1C(F)(F)F)C1CCCN(c2nnc(-c3ccnn3C)c3ccccc23)C1` (stereo not shown) [Example 54, N-[[4-fluoro-2-(trifluoromethyl)phenyl]methyl]-N-methyl-1-[4-(2-methylpyrazol-3-yl)phthalazin-1-yl]piperidin-3-amine] was tested, and the pIC50 was 5.70 to 6.70.
For `Cn1nccc1-c1nnc(N2CCC(NC(=O)NC3CCCCC3)CC2)c2ccccc12` [Example 11, 1-cyclohexyl-3-[1-[4-(2-methylpyrazol-3-yl)phthalazin-1-yl]-4-piperidyl]urea], the pIC50 was over 8.00.
`CC(C)c1ccccc1CN(C)C1CCN(c2nnc(-c3ccnn3C)c3ccccc23)CC1` [Example 29, N-[(2-isopropylphenyl)methyl]-N-methyl-1-[4-(2-methylpyrazol-3-yl)phthalazin-1-yl]piperidin-4-amine] gave a pIC50 of 6.70 to 8.00.
Work on `Cn1nccc1-c1nnc(N2CCC(NCc3ccccc3OC(F)(F)F)CC2)c2ccccc12` [Example 36, 1-[4-(2-methylpyrazol-3-yl)phthalazin-1-yl]-N-[[2-(trifluoromethoxy)phenyl]methyl]piperidin-4-amine] yielded a pIC50 of 6.70 to 8.00.
Work on `Cn1nccc1-c1nnc(N2CCC(NC(=O)Nc3ccc(F)cc3F)CC2)c2ccccc12` [Example 8] yielded a pIC50 of over 8.00.
`COc1ccccc1CN(C)C1CCN(c2nnc(-c3ccnn3C)c3ccccc23)CC1` [Example 61, N-[(2-methoxyphenyl)methyl]-N-methyl-1-[4-(2-methylpyrazol-3-yl)phthalazin-1-yl]piperidin-4-amine] was tested, and the pIC50 was 5.70 to 6.70.
For `COc1ccccc1CNC1CCN(c2nnc(-c3ccnn3C)c3ccccc23)CC1` [Example 69, N-[(2-methoxyphenyl)methyl]-1-[4-(2-methylpyrazol-3-yl)phthalazin-1-yl]piperidin-4-amine], the pIC50 was 5.70 to 6.70.
In the case of `CN(Cc1ccc(F)cc1C(F)(F)F)C1CCN(c2nnc(-c3ccnn3C)c3ccccc23)CC1` [Example 78, N-[[4-fluoro-2-(trifluoromethyl)phenyl]methyl]-N-methyl-1-[4-(2-methylpyrazol-3-yl)phthalazin-1-yl]piperidin-4-amine], the pIC50 was over 8.00.
Work on `Cn1nccc1-c1nnc(N2CCC(NCc3ccc(F)cc3)CC2)c2ccccc12` [Example 75, N-[(4-fluorophenyl)methyl]-1-[4-(2-methylpyrazol-3-yl)phthalazin-1-yl]piperidin-4-amine] yielded a pIC50 of 5.70 to 6.70.

Same assay, conditions: NIH3T3; Gli-reporter NIH-3T3 cells, recombinant mouse sonic hedgehog, 24 hours, luminescence; read-out: Gli Luc nM (IC50)
`Cc1c(-c2ccnn2C)nnc(N2CCC(N(C)C(=O)Nc3ccc(F)cc3C(F)(F)F)CC2)c1C` [Example 151, 1-[1-[4,5-dimethyl-6-(2-methylpyrazol-3-yl)pyridazin-3-yl]-4-piperidyl]-3-[4-fluoro-2-(trifluoromethyl)phenyl]-1-methyl-urea] showed an IC50 of 5.12 nM.
For `Cn1nccc1-c1nnc(N2CCC(NC(=O)Nc3ccc(F)cc3F)CC2)c2ccccc12` [Example 8], the IC50 was 0.99 nM.

Same assay, conditions: NIH3T3; Gli-reporter NIH-3T3 cells, recombinant mouse sonic hedgehog, 24 hours, luminescence; read-out: Gli luc IC50
In the case of `Cc1nc(C(F)(F)F)c(CN(C)C2CCN(c3nnc(-c4ccnn4C)c(C)c3C)CC2)s1` [Example 95, 1-[4,5-dimethyl-6-(2-methylpyrazol-3-yl)pyridazin-3-yl]-N-methyl-N-[[2-methyl-4-(trifluoromethyl)thiazol-5-yl]methyl]piperidin-4-amine], the pIC50 was 6.70 to 8.00.
Compound `Cc1c(-c2ccnn2C)nnc(N2CCC(N(C)C(=O)Nc3ccc(F)cc3C(F)(F)F)CC2)c1C` [Example 151, 1-[1-[4,5-dimethyl-6-(2-methylpyrazol-3-yl)pyridazin-3-yl]-4-piperidyl]-3-[4-fluoro-2-(trifluoromethyl)phenyl]-1-methyl-urea] has a pIC50 of over 8.00.
Compound `Cn1nccc1-c1nnc(N2CCC(NC(=O)NC3(C(F)(F)F)CC3)CC2)c2ccccc12` [Example 109, 1-[1-[4-(2-methylpyrazol-3-yl)phthalazin-1-yl]-4-piperidyl]-3-[1-(trifluoromethyl)cyclopropyl]urea] has a pIC50 of 6.70 to 8.00.
`Cn1nccc1-c1nnc(N2CCC(NCc3ccccc3S(C)(=O)=O)CC2)c2ccccc12` [Example 115, 1-[4-(2-methylpyrazol-3-yl)phthalazin-1-yl]-N-[(2-methylsulfonylphenyl)methyl]piperidin-4-amine] gave a pIC50 of 6.70 to 8.00.
`CN(Cc1ccc(F)cc1C(F)(F)F)C1CCN(c2nnc(N3CCOCC3)c3ccccc23)CC1` [Example 144, N-[[4-fluoro-2-(trifluoromethyl)phenyl]methyl]-N-methyl-1-(4-morpholinophthalazin-1-yl)piperidin-4-amine] was tested, and the pIC50 was under 6.70.
`CN(C1CCN(c2nnc(-c3ccnn3C)c3c2CCC3)CC1)S(=O)(=O)c1ccc(F)cc1C(F)(F)F` [Example 124, 4-fluoro-N-methyl-N-[1-[1-(2-methylpyrazol-3-yl)-6,7-dihydro-5H-cyclopenta[d]pyridazin-4-yl]-4-piperidyl]-2-(trifluoromethyl)benzenesulfonamide] was tested, and the pIC50 was 6.70 to 8.00.
With `CN(Cc1cccnc1C(F)(F)F)C1CCN(c2nnc(-c3ccnn3C)c3ccccc23)CC1` [Example 157, N-methyl-1-[4-(2-methylpyrazol-3-yl)phthalazin-1-yl]-N-[[2-(trifluoromethyl)-3-pyridyl]methyl]piperidin-4-amine] the pIC50 was over 8.00.
In the case of `Cn1nccc1-c1nnc(N2CCC(CNCc3ccc(F)cc3C(F)(F)F)C2)c2ccccc12` (stereo not shown) [Example 140, 1-[4-fluoro-2-(trifluoromethyl)phenyl]-N-[[1-[4-(2-methylpyrazol-3-yl)phthalazin-1-yl]pyrrolidin-3-yl]methyl]methanamine], the pIC50 was 6.70 to 8.00.
`Cn1nccc1-c1nnc(N2CCC(NC(=O)Nc3ccc(OC(F)(F)F)cc3)CC2)c2ccccc12` [Example 167, 1-[1-[4-(2-methylpyrazol-3-yl)phthalazin-1-yl]-4-piperidyl]-3-[4-(trifluoromethoxy)phenyl]urea] gave a pIC50 of over 8.00.
`CN(Cc1ccc(F)cc1C(F)(F)F)CC1CCN(c2nnc(-c3ccnn3C)c3ccccc23)C1` (stereo not shown) [Example 139, 1-[4-fluoro-2-(trifluoromethyl)phenyl]-N-methyl-N-[[1-[4-(2-methylpyrazol-3-yl)phthalazin-1-yl]pyrrolidin-3-yl]methyl]methanamine] showed a pIC50 of 6.70 to 8.00.
Compound `CN(C(=O)Nc1ccc(F)cc1F)C1CCN(c2nnc(-c3ccnn3C)c3ccncc23)CC1` [Example 111, 3-(2,4-difluorophenyl)-1-methyl-1-[1-[1-(2-methylpyrazol-3-yl)pyrido[3,4-d]pyridazin-4-yl]-4-piperidyl]urea] has a pIC50 of 6.70 to 8.00.
With `CN(C1CCN(c2nnc(-c3ccnn3C)c3ccncc23)CC1)S(=O)(=O)c1ccc(F)cc1F` [Example 102, 2,4-difluoro-N-methyl-N-[1-[1-(2-methylpyrazol-3-yl)pyrido[3,4-d]pyridazin-4-yl]-4-piperidyl]benzenesulfonamide] the pIC50 was 6.70 to 8.00.
`CN(C(=O)Nc1ccc(F)cc1C(F)(F)F)C1CCN(c2nnc(-c3ccnn3C)c3cccnc23)CC1` [Example 137, 3-[4-fluoro-2-(trifluoromethyl)phenyl]-1-methyl-1-[1-[5-(2-methylpyrazol-3-yl)pyrido[2,3-d]pyridazin-8-yl]-4-piperidyl]urea] showed a pIC50 of over 8.00.
`COc1cc(-c2nnc(N3CCC(NS(=O)(=O)c4ccc(F)cc4C(F)(F)F)CC3)c(C)c2C)ccn1` [Example 172, 4-fluoro-N-[1-[6-(2-methoxy-4-pyridyl)-4,5-dimethyl-pyridazin-3-yl]-4-piperidyl]-2-(trifluoromethyl)benzenesulfonamide] was tested, and the pIC50 was under 6.00.
Work on `Cc1c(-c2ccnn2C)nnc(N2CCC(NC(=O)NC3(C(F)(F)F)CC3)CC2)c1C` [Example 108, 1-[1-[4,5-dimethyl-6-(2-methylpyrazol-3-yl)pyridazin-3-yl]-4-piperidyl]-3-[1-(trifluoromethyl)cyclopropyl]urea] yielded a pIC50 of 6.70 to 8.00.
